Assay results reported in US20240382435A1, “NON-CERULOPLASMIN BOUND COPPER LEVEL MONITORING” (ORPHALAN S.A., priority 2021, published 2024).

Columns and labels:
[1] = tested on: patients with Wilson's Disease; assay: Clinical Global Impression of Change (CGIC) rating scale, clinical study of Example 3; format: in vivo, human; parameters: key: 7-point ordinal CGIC scale, 4 = no change; conditions: 7-point scale, ITT
Source text: The CGIC rating scale, a 7-point ordinal score, was summarized by visit and treatment arm, and compared between arms using a stratified Cochran-Mantel-Haenszel test. The UWDRS, a continuous measure, was summarized by visit and treatment arm with descriptive statistics for absolute values and the changes from baseline.

[2] = tested on: patients with Wilson's Disease; assay: 24-hour urinary copper excretion (UCE), clinical study of Example 3; format: in vivo, human; conditions: for 24-hour UCE value, mean / 24-hour UCE value, median / 24-hour UCE change from baseline, mean / 24-hour UCE change from baseline, median: ITT
Procedure: The number and the proportion of patients with a serum NCC value that matched the threshold (eg, serum NCC≤50 μg/L) were presented along with the 95% confidence interval of the proportion by visit and treatment arm. The proportions in the 2 arms were compared using Fisher's exact test. The same approach was applied on 24-hour UCE.

[3] = tested on: patients with Wilson's Disease; assay: Serum NCC by copper speciation assay, randomized open-label clinical study (Example 3); format: in vivo, human; conditions: for serum NCC levels, comparison between arms: copper speciation assay, Table 4
Procedure: 1.95 mL of rhodium internal standard solution containing 1% TMAH/1% EDTA was combined with 50 μL of human serum in a 15 mL polypropylene tube, capped and rotary mixed for at least 30 minutes. The processed sample was then analysed by ICP-MS on an Agilent 7900x inductively coupled plasma mass spectrometer.
The samples were defrosted and equilibrated to room temperature prior to use, and vortex mixed for approximately 5 seconds. 80 μL of 50 mM Tris-HCl (pH 7.4) buffer solution was combined with 20 μL of the clinical sample, blank or reference standard in a 0.5 mL Eppendorf tube (protein low bind). The diluted sample (100 μL) was transferred to a 0.3 mL polypropylene LC vial and sealed with a screw cap. An aliquot (50 μL) of each processed sample was then analysed by LC-ICP-MS on an Agilent 8900x inductively coupled plasma mass spectrometer.
Speciation analysis of Cu-containing species in the serum samples was performed by an anion exchange high performance liquid chromatography (AE HPLC) column (GE Healthcare MonoQ 5/50 GL, stationary phase (10 μm; 5×50 mm)) with an ammonium acetate gradient (0-250 mM) for 20 min. A flow rate of 1.0 mL/min was used. The chromatographic separation was performed at 25° C. Detection of the eluting Cu species was achieved using a collision/reaction cell Agilent Technologies 8900x ICP-MS spectrometer. The isotopes 63Cu and 65Cu were monitored in time resolved mode analysis using an integration time of 0.3 sec. 63Cu is the most abundant isotope and therefore this isotope was used to quantify copper by LC-ICP-MS.
Efficacy was assessed and treatments were monitored primarily using total copper analysis and a copper speciation assay as outlined in Examples 1 and 2 to determine serum NCC levels.
Eligible patients were clinically stable with their standard of-care D penicillamine chelation therapy for at least 1 year. These patients entered a 12-Week Penicillamine Baseline Period (from study visits on Day 1 to Week 12). During this time, all patients continued their current D penicillamine regimen under study conditions. At the end of the Penicillamine Baseline Period, patients who fulfilled the protocol definition of being adequately controlled and tolerating D penicillamine were randomized in a 1:1 ratio to receive either TETA 4HCl or to continue to receive D penicillamine during a 24-Week Post-Randomization Period (from study visits Week 12 to Week 36).
The primary efficacy endpoint was the serum NCC concentration (in μg/L) at Week 36. Serum NCC concentrations were determined using a copper speciation serum NCC assay using the methodology outlined in Examples 1 and 2. The primary efficacy analysis utilized the serum NCC values from all study visits that were analyzed using a restricted maximum likelihood based general linear model for correlated data. The correlation due to repeated measures was modelled by specifying the variance covariance matrix.

[4] = tested on: patients with Wilson's Disease; assay: Baseline ALT, clinical study of Example 3
Source text: For change from baseline in laboratory measurements, “baseline” was defined as the last non-missing value during the Penicillamine Baseline Period, including unscheduled values.

[5] = Week 4, Penicillamine Baseline Period (all patients on D-penicillamine), 4 = no change
[6] = Week 4, Penicillamine Baseline Period (all patients on D-penicillamine)
[7] = Week 12, Penicillamine Baseline Period
[8] = Week 16, Post-Randomization Period
[9] = Week 24, Post-Randomization Period
[10] = Week 36, Post-Randomization Period
[11] = Day 1, 12-Week Penicillamine Baseline Period (all patients on D-penicillamine), by arm
[12] = Week 12 (randomization), end of Penicillamine Baseline Period
[13] = Week 16, 24-Week Post-Baseline Period
[14] = Week 24, 24-Week Post-Baseline Period
[15] = Week 36, 24-Week Post-Baseline Period
[16] = Day 1, 12-Week Penicillamine Baseline Period (all patients on D-penicillamine), ITT population, by arm
[17] = Week 4, Penicillamine Baseline Period (all patients on D-penicillamine), ITT
[18] = Week 8, Penicillamine Baseline Period (all patients on D-penicillamine), ITT
[19] = Week 12 (randomization), end of Penicillamine Baseline Period, ITT
[20] = Week 16, 24-Week Post-Randomization Period, ITT
[21] = Week 16, Post-Randomization Period, ITT
[22] = Week 20, Post-Randomization Period, ITT
[23] = Week 24, Post-Randomization Period, ITT
[24] = Week 28, Post-Randomization Period, ITT
[25] = Week 32, Post-Randomization Period, ITT
[26] = Week 36 (primary efficacy endpoint), Post-Randomization Period, ITT
[27] = Week 36, Post-Randomization Period, ITT

## Cl.Cl.Cl.Cl.NCCNCCNCCN [TETA 4HCl, trientine tetrahydrochloride]
[1]; [5]
  Clinical Global Impression of Change Scale, mean: 4.0
[1]; [6]
  Clinical Global Impression of Change Scale, median: 4.0
[1]; [7]
  Clinical Global Impression of Change Scale, mean: 4.0
  Clinical Global Impression of Change Scale, median: 4.0
[1]; [8]
  Clinical Global Impression of Change Scale, mean: 4
  Clinical Global Impression of Change Scale, median: 4.0
[1]; [9]
  Clinical Global Impression of Change Scale, mean: 4.0
  Clinical Global Impression of Change Scale, median: 4.0
[1]; [10]
  Clinical Global Impression of Change Scale, mean: 3.9
  Clinical Global Impression of Change Scale, median: 4.0
[2]; [11]
  24-hour UCE value, mean: 550.8 μg/24 hours
  24-hour UCE value, median: 546.6 μg/24 hours
[2]; [6]
  24-hour UCE value, mean: 545.4 μg/24 hours
  24-hour UCE value, median: 436.1 μg/24 hours
[2]; [12]
  24-hour UCE value, mean: 535.1 μg/24 hours
  24-hour UCE value, median: 590.4 μg/24 hours
[2]; [13]
  24-hour UCE change from baseline, mean: −223 μg/24 hours
  24-hour UCE change from baseline, median: −221 μg/24 hours
  24-hour UCE value, mean: 316.4 μg/24 hours
  24-hour UCE value, median: 265.6 μg/24 hours
[2]; [14]
  24-hour UCE change from baseline, mean: −247 μg/24 hours
  24-hour UCE change from baseline, median: −199 μg/24 hours
  24-hour UCE value, mean: 295.7 μg/24 hours
  24-hour UCE value, median: 257.8 μg/24 hours
[2]; [15]
  24-hour UCE change from baseline, mean: −258 μg/24 hours
  24-hour UCE change from baseline, median: −231 μg/24 hours
  24-hour UCE value, mean: 289.4 μg/24 hours
  24-hour UCE value, median: 234.8 μg/24 hours
[3]; [16]
  serum NCC value, mean: 60.7 µg/L
  serum NCC value, median: 58.2 µg/L
[3]; [17]
  serum NCC value, mean: 57.6 µg/L
  serum NCC value, median: 58.5 µg/L
[3]; [18]
  serum NCC value, mean: 70.0 µg/L
  serum NCC value, median: 61.5 µg/L
[3]; [19]
  serum NCC value, mean: 68.5 µg/L
  serum NCC value, median: 61.1 µg/L
[3]; [20]
  serum NCC value, mean: 78.0 µg/L
[3]; [21]
  serum NCC change from baseline, mean: 9.4 µg/L
  serum NCC change from baseline, median: 9.2 µg/L
  serum NCC value, median: 69.6 µg/L
[3]; [22]
  serum NCC change from baseline, mean: 8.2 µg/L
  serum NCC change from baseline, median: 4.1 µg/L
  serum NCC value, mean: 76.8 µg/L
  serum NCC value, median: 60.8 µg/L
[3]; [23]
  serum NCC change from baseline, mean: -0.4 µg/L
  serum NCC change from baseline, median: 3.0 µg/L
  serum NCC value, mean: 60.3 µg/L
  serum NCC value, median: 57.0 µg/L
[3]; [24]
  serum NCC change from baseline, mean: -0.8 µg/L
  serum NCC change from baseline, median: 0.0 µg/L
  serum NCC value, mean: 69.5 µg/L
  serum NCC value, median: 62.4 µg/L
[3]; [25]
  serum NCC change from baseline, mean: -4.6 µg/L
  serum NCC change from baseline, median: 0.7 µg/L
  serum NCC value, mean: 64.0 µg/L
  serum NCC value, median: 60.0 µg/L
[3]; [26]
  serum NCC value, mean: 57.6 µg/L
[3]; [27]
  serum NCC change from baseline, mean: -11.0 µg/L
  serum NCC change from baseline, median: -6.9 µg/L
  serum NCC value, median: 51.1 µg/L
[3]
  serum NCC levels, comparison between arms: very similar
[4]; baseline (Penicillamine Baseline Period), by treatment arm
  ALT, mean baseline: 34.7 U/L

## CC(C)(S)[C@@H](N)C(=O)O [D-Penicillamine, D-penicillamine]
[1]; [5]
  Clinical Global Impression of Change Scale, mean: 4.1
[1]; [6]
  Clinical Global Impression of Change Scale, median: 4.0
[1]; [7]
  Clinical Global Impression of Change Scale, mean: 3.9
  Clinical Global Impression of Change Scale, median: 4.0
[1]; [8]
  Clinical Global Impression of Change Scale, mean: 4.1
  Clinical Global Impression of Change Scale, median: 4.0
[1]; [9]
  Clinical Global Impression of Change Scale, mean: 4.0
  Clinical Global Impression of Change Scale, median: 4.0
[1]; [10]
  Clinical Global Impression of Change Scale, mean: 4.0
  Clinical Global Impression of Change Scale, median: 4.0
[2]; [11]
  24-hour UCE value, mean: 568.3 μg/24 hours
  24-hour UCE value, median: 478.8 μg/24 hours
[2]; [6]
  24-hour UCE value, mean: 551.5 μg/24 hours
  24-hour UCE value, median: 594.6 μg/24 hours
[2]; [12]
  24-hour UCE value, mean: 539.1 μg/24 hours
  24-hour UCE value, median: 496.0 μg/24 hours
[2]; [13]
  24-hour UCE change from baseline, mean: −26.8 μg/24 hours
  24-hour UCE change from baseline, median: −60.3 μg/24 hours
  24-hour UCE value, mean: 512.1 μg/24 hours
  24-hour UCE value, median: 501.4 μg/24 hours
[2]; [14]
  24-hour UCE change from baseline, mean: 37.9 μg/24 hours
  24-hour UCE change from baseline, median: 23.4 μg/24 hours
  24-hour UCE value, mean: 546.8 μg/24 hours
  24-hour UCE value, median: 495.3 μg/24 hours
[2]; [15]
  24-hour UCE change from baseline, mean: 4.9 μg/24 hours
  24-hour UCE change from baseline, median: −4.7 μg/24 hours
  24-hour UCE value, mean: 519.7 μg/24 hours
  24-hour UCE value, median: 536.9 μg/24 hours
[2]; all time points analyzed after randomization, statistically significant differences
  24-hour UCE, comparison between treatment arms: higher levels of copper excretion
[3]; [16]
  serum NCC value, mean: 63.9 µg/L
  serum NCC value, median: 61.0 µg/L
[3]; [17]
  serum NCC value, mean: 59.4 µg/L
  serum NCC value, median: 58.4 µg/L
[3]; [18]
  serum NCC value, mean: 71.9 µg/L
  serum NCC value, median: 69.0 µg/L
[3]; [19]
  serum NCC value, mean: 84.4 µg/L
  serum NCC value, median: 83.0 µg/L
[3]; [20]
  serum NCC value, mean: 82.8 µg/L
[3]; [21]
  serum NCC change from baseline, mean: -2.1 µg/L
  serum NCC change from baseline, median: 0.0 µg/L
  serum NCC value, median: 77.5 µg/L
[3]; [22]
  serum NCC change from baseline, mean: -12.3 µg/L
  serum NCC change from baseline, median: -11.6 µg/L
  serum NCC value, mean: 73.3 µg/L
  serum NCC value, median: 75.5 µg/L
[3]; [23]
  serum NCC change from baseline, mean: -16.9 µg/L
  serum NCC change from baseline, median: -20.0 µg/L
  serum NCC value, mean: 66.3 µg/L
  serum NCC value, median: 64.0 µg/L
[3]; [24]
  serum NCC change from baseline, mean: -10.6 µg/L
  serum NCC change from baseline, median: -17.5 µg/L
  serum NCC value, mean: 73.1 µg/L
  serum NCC value, median: 65.1 µg/L
[3]; [25]
  serum NCC change from baseline, mean: -19.1 µg/L
  serum NCC change from baseline, median: -21.7 µg/L
  serum NCC value, mean: 64.6 µg/L
  serum NCC value, median: 62.0 µg/L
[3]; [26]
  serum NCC value, mean: 53.4 µg/L
[3]; [27]
  serum NCC change from baseline, mean: -29.7 µg/L
  serum NCC change from baseline, median: -34.0 µg/L
  serum NCC value, median: 51.0 µg/L
[3]
  serum NCC levels, comparison between arms: very similar
[4]; human, in vivo
  ALT, mean baseline: 35.6 U/L
